Measurements taken from PMC12583774 (Nature Communications, 2025).

Experiments:
[1] = tested on: SARS-CoV-2 strain (Wuhan-Hu-1); assay: microbe, parasite or virus in culture; type: cell-based; conditions: Severe acute respiratory syndrome coronavirus 2, A549-ACE2, 24 h
[2] = tested on: SARS-CoV-2 nCoV-SH01 strain; parameters: species or system K18-hACE2 transgenic mice; conditions: mouse, in vivo

Structure (SMILES): CCC(CC)COC(=O)[C@H](C)N[P@](=O)(OC[C@H]1O[C@@](C#N)(c2ccc3c(N)ncnn23)[C@H](O)[C@@H]1O)Oc1ccccc1 [remdesivir]
- EC50 [1]: 60 nM
- SARS-CoV-2 N protein antigen staining in lungs (IHC) [2]: significantly reduced viral antigen staining
- lung pathological features (H&E) [2]: markedly alleviated
